Experiments:
[1] = order of potency (+)-nefopam > (±)-nefopam > (−)-nefopam; cited from earlier work
dopamine uptake = details: order of potency (+)-nefopam > (±)-nefopam > (−)-nefopam; cited from earlier work
norepinephrine uptake = details: order of potency (+)-nefopam > (±)-nefopam > (−)-nefopam; cited from earlier work
serotonin-uptake = details: order of potency (+)-nefopam > (±)-nefopam > (−)-nefopam; cited from earlier work
[2] = test system: emesis (retching and vomiting); experiment: emesis caused by opioid (morphine) and other proemetic agents (cisplatin) in ferrets; type: in vivo; details: i.p. pre-dosing, morphine 0.125 mg/kg s.c. or cisplatin 5 mg/kg i.p.
Procedure: Male ferrets (0.9- 1.7 kg) obtained from Leeds University were housed in pairs at 22±1° C. and had free access to food (SDS Diet ‘C’ (E), Special Diet Services, UK) and water. They were housed under artificial lighting with lights on between 07:00 and 21:00 hours. For experimental use, animals were removed from their holding cages and placed individually into observation cages. The animals were allowed free access to water and food. The animals were divided into separate groups of 4 animals per group. Animals were frequently observed throughout the experiments by a trained technician to ensure that the animals remained in good health. In addition, animal behaviour was video recorded for subsequent analysis of emesis (see Rudd et al., 1994). Emesis was characterized by rhythmic abdominal contractions which were either associated with the oral expulsion of solid or liquid material from the gastrointestinal tract (i.e. vomiting) or not associated with the passage of material (i.e. retching movements). The number of highly distinctive abdominal contractions was counted. (+)-Nefopam was dissolved in saline and administered in a volume of 1 ml/kg. […] Observations were recorded over a 4 hr period post-morphine dosing and scored for incidences of retching and vomiting. […] Observations were recorded over the 72 hr period post-cisplatin dosing and scored for incidences of retching and vomiting.

opiate receptors = details: cited from earlier work

Row | SMILES | analgesic properties, potency compared with (−)-nefopam [1] | dopamine uptake inhibitory properties, potency compared with (−)-nefopam (dopamine uptake) | norepinephrine uptake inhibitory properties, potency compared with (−)-nefopam (norepinephrine uptake) | serotonin-uptake inhibitory properties, potency compared with (−)-nefopam (serotonin-uptake) | effect on emesis caused by opioid and other recognised proemetic agents [2] | antinociception in animal models of pain and in humans (opiate receptors; animal models of pain and humans) | blockade of antinociception by nalaxone (opiate receptors; nalaxone)
1 | CN1CCO[C@@H](c2ccccc2)c2ccccc2C1 [(+)-nefopam] | more potent | more potent | more potent | more potent | – | – | –
2 | CN1CCOC(c2ccccc2)c2ccccc2C1 (racemic) [nefopam] | – | – | – | – | able to prevent or diminish emesis | induce antinociception | not blocked
